Assay results as given in patent US20240327406A1, “POTASSIUM CHANNEL MODULATORS” (Autifony Therapeutics Limited, priority 2021, published 2024).
Several values for one entry are separate records, joined by “and”; a condition that tells them apart may be missing. Identical values can stand only once. Like-named read-outs stand apart in the source and are kept apart here.

Target: T1, human Kv3.1 channels (hKv3.1) (Homo sapiens, UniProt P48547)
T1 sequence (P48547 1-501 limits assumed): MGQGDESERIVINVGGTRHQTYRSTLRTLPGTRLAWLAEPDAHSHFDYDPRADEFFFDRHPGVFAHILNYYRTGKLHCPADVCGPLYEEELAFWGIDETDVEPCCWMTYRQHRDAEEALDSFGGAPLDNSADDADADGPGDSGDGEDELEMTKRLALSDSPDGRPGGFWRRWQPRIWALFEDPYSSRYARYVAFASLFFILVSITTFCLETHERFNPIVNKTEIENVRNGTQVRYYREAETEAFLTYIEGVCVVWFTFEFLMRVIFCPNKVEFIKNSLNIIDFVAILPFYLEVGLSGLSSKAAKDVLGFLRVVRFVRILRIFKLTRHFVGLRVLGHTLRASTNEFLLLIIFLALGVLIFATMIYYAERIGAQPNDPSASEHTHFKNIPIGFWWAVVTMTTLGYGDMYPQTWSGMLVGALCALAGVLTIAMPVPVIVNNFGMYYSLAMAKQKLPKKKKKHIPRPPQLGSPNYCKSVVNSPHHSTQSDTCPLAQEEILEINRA
Test: Measurement of Kv3 channel modulation: Kv3.1 assay (IonWorks Quattro whole-cell electrophysiology)
Assay type: cell-based
Settings: for Kv3.1 max R %: normalised to maximum effect of reference compound (50 microM); for EC50: read-out: Kv3.1 pEC50 (converted)

[1] = Table 2, Example compounds, rounded to one decimal place, some compounds with two data sets (n given in cell)

Compound | Kv3.1 max R % (Table 2, Example compounds) | EC50 [1] | EC50 (Table 5, Example compounds)
Cc1ccc(Oc2ccc(-n3c(=O)[nH]c4cccnc43)cn2)cc1OC(F)(F)F [Example 4, 3-[6-[4-methyl-3-(trifluoromethoxy)phenoxy]-3-pyridyl]-1H-imidazo[4,5-b]pyridin-2-one] | 111% | 1260 nM | 1260 nM
Cc1ccc(Oc2ncc(-n3c(=O)[nH]c4cccnc43)cn2)cc1OC(F)(F)F [Example 32, 3-[2-[4-methyl-3-(trifluoromethoxy)phenoxy]pyrimidin-5-yl]-1H-imidazo[4,5-b]pyridin-2-one] | 174% | 1580 nM | 1580 nM
O=c1[nH]c2cccnc2n1-c1cnc(Oc2cccc(OC(F)(F)F)c2)nc1 [Example 17, 3-[2-[3-(trifluoromethoxy)phenoxy]pyrimidin-5-yl]-1H-imidazo[4,5-b]pyridin-2-one] | 103% and 125% | 1260 nM | 1000 nM
